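All cell lines were grown in 96-well plates and treated with compound for 48 hours. TGI marks complete inhibition of growth.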 Where a SMILES comes first, the peptide text is derived from it. [ ]: non-standard residue; d: D form. The star is where a group is joined. X28 = COC1=CC(=O)N(C(=O)[C@@H](O*)C(C)C)[C@H]1Cc1ccccc1; NMeV = CN[C@H](C(=O)O)C(C)C; Hexanoyl = CCCCCC(=O)*
Columns and labels:
Assay in all cases: inhibition of tumour cell growth, NCI panel, 48 h
NCI-H23 lung = test system: NCI-H23 lung
HCT-15 colon = test system: HCT-15 colon
DU-145 prostate = test system: DU-145 prostate
SNB-19 CNS = test system: SNB-19 CNS
CAKI-1 renal = test system: CAKI-1 renal
BT-549 breast = test system: BT-549 breast
NCI-H226 lung = test system: NCI-H226 lung
U251 CNS = test system: U251 CNS
HT29 colon = test system: HT29 colon
UACC-62 melanoma = test system: UACC-62 melanoma
EKVX NSCLC = test system: EKVX NSCLC
IGROV1 ovarian = test system: IGROV1 ovarian
RXF 393 renal = test system: RXF 393 renal
COLO 205 colon = test system: COLO 205 colon
MDA-MB-231 breast = test system: MDA-MB-231 breast
OVCAR-3 ovarian = test system: OVCAR-3 ovarian
RPMI-8226 leukemia = test system: RPMI-8226 leukemia
OVCAR-5 ovarian = test system: OVCAR-5 ovarian
SNB-75 CNS = test system: SNB-75 CNS

Row | Structure (SMILES) | TGI (NCI-H23 lung) [µM] | TGI (HCT-15 colon) [µM] | TGI (DU-145 prostate) [µM] | TGI (SNB-19 CNS) [µM] | TGI (CAKI-1 renal) [µM] | TGI (BT-549 breast) [µM] | TGI (NCI-H226 lung) [µM] | TGI (U251 CNS) [µM] | TGI (HT29 colon) [µM] | TGI (UACC-62 melanoma) [µM] | TGI (EKVX NSCLC) [µM] | TGI (IGROV1 ovarian) [µM] | TGI (RXF 393 renal) [µM] | TGI (COLO 205 colon) [µM] | TGI (MDA-MB-231 breast) [µM] | TGI (OVCAR-3 ovarian) [µM] | TGI (RPMI-8226 leukemia) [µM] | TGI (OVCAR-5 ovarian) [µM] | TGI (SNB-75 CNS) [µM]
1 | CC12CCC(CC1=O)C2(C)CCC(N)=O (stereo not drawn) | > 100 | > 100 | > 100 | > 100 | > 100 | > 100 | > 100 | > 100 | > 100 | > 100 | > 100 | > 100 | > 100 | > 100 | > 100 | > 100 | > 100 | > 100 | –
2 | CCN(CC)CCC(=O)c1ccc(Oc2ccc(Cl)cc2)cc1 | 34 | 38.8 | 47.8 | > 100 | 37.9 | 32.6 | – | 33.1 | 47.2 | 35.2 | 42.2 | 41.8 | 43.2 | 45.1 | 29.2 | 28.6 | 16.3 | 29.9 | 25.5
3 | O=C(/C=C(\O)c1ccccc1)C(=O)NNc1ccc([N+](=O)[O-])cc1[N+](=O)[O-] | 47.2 | 35.4 | 32.9 | 74.6 | 43.1 | 48.2 | 50.4 | 28.1 | – | 31.1 | 56.3 | 38.2 | 35 | 32.3 | 67.6 | – | 82.4 | 58.7 | 30.9
4 | N=c1oc2cc(O)ccc2cc1C(=O)NCc1ccccc1 | 58.7 | > 100 | 56.4 | 96.9 | 69.7 | 71.1 | > 100 | > 100 | > 100 | – | > 100 | > 100 | 85 | 25.4 | 65.5 | 57.9 | 39.9 | > 100 | 43.8
5 | CS(=O)(=O)N1CC(CCl)c2ccc([N+](=O)[O-])cc21 (stereo not drawn) | > 100 | > 100 | > 100 | > 100 | > 100 | > 100 | > 100 | > 100 | > 100 | > 100 | > 100 | > 100 | > 100 | > 100 | > 100 | > 100 | > 100 | > 100 | –
6 | NC(=O)N/N=C1\CCCCc2ccccc21 | > 10 | > 10 | > 10 | > 10 | > 10 | > 10 | > 10 | > 10 | > 10 | – | > 10 | – | > 10 | > 10 | > 10 | > 10 | > 10 | > 10 | –
7 | CCCCCC(=O)N[C@H](C(=O)N[C@H](C(=O)N(C)[C@H](C(=O)N1CCC[C@H]1C(=O)N1CCC[C@H]1C(=O)O[C@H](C(=O)N1C(=O)C=C(OC)[C@@H]1Cc1ccccc1)C(C)C)C(C)C)C(C)C)C(C)C (Hexanoyl-VV[NMeV]PP-X28) | > 100 | > 100 | > 100 | – | > 100 | > 100 | > 100 | > 100 | > 100 | > 100 | > 100 | > 100 | 62.7 | > 100 | > 100 | > 100 | > 100 | > 100 | 38.5
8 | COc1ccc2oc(=N)c(C(=O)NCc3ccccc3)cc2c1 | 43.1 | > 100 | 88.8 | > 100 | > 100 | 45.4 | 85 | 37.2 | > 100 | – | > 100 | 60.8 | 42.4 | > 100 | 58.1 | > 100 | > 100 | > 100 | 35
9 | COc1ccc(OCc2nc3cc(C(F)(F)F)ccc3nc2-c2ccccc2)cc1 | > 100 | > 100 | > 100 | > 100 | > 100 | > 100 | > 100 | > 100 | > 100 | > 100 | > 100 | – | > 100 | > 100 | > 100 | > 100 | > 100 | > 100 | > 100
10 | NC1CC(=O)c2sc(I)cc21 (stereo not drawn) | – | > 100 | > 100 | > 100 | > 100 | > 100 | – | > 100 | > 100 | > 100 | > 100 | > 100 | > 100 | > 100 | > 100 | > 100 | > 100 | > 100 | > 100
11 | CC(NNC(=O)c1ccncc1)c1ccc(F)cc1 (stereo not drawn) | > 100 | > 100 | > 100 | > 100 | > 100 | > 100 | > 100 | > 100 | > 100 | > 100 | > 100 | > 100 | > 100 | > 100 | > 100 | > 100 | – | > 100 | > 100
12 | CC(=O)OCOC(=O)CN(CC(=O)OCOC(C)=O)Cc1cc2c(cc1OC(C)=O)Oc1cc(OC(C)=O)c(CN(CC(=O)OCOC(C)=O)CC(=O)OCOC(C)=O)cc1C21OC(=O)c2ccccc21 | 2.51 | 7.05 | 6.35 | 6.16 | 6.77 | 1.16 | 2.86 | 8.5 | 1.88 | 1.19 | 10.6 | 1.36 | 1.43 | 1.86 | 3.64 | 2.98 | – | 11.1 | 9.39
13 | Cc1ccc(C2=Nc3cccc4cccc(c34)N2)cc1 | > 100 | > 100 | > 100 | > 100 | > 100 | > 100 | > 100 | > 100 | > 100 | > 100 | > 100 | > 100 | > 100 | > 100 | > 100 | > 100 | > 100 | – | > 100
14 | CC(=O)N1C(Nc2ccccn2)CCN1c1ccccc1 (stereo not drawn) | > 10 | > 10 | > 10 | > 10 | > 10 | > 10 | > 10 | – | > 10 | – | > 10 | > 10 | > 10 | > 10 | > 10 | > 10 | > 10 | > 10 | > 10
15 | COCCN(C(C)=O)C1CCC2(SCCS2)c2[nH]c3ccccc3c21 (stereo not drawn) | > 100 | > 100 | > 100 | > 100 | > 100 | > 100 | > 100 | > 100 | > 100 | – | > 100 | > 100 | > 100 | > 100 | > 100 | > 100 | > 100 | > 100 | > 100
16 | O=[N+]([O-])C(C(Cl)=C(Cl)Cl)=C(N(Cc1ccccc1)Cc1ccccc1)N(Cc1ccccc1)Cc1ccccc1 | > 100 | > 100 | > 100 | > 100 | > 100 | > 100 | > 100 | > 100 | > 100 | > 100 | > 100 | > 100 | > 100 | > 100 | > 100 | > 100 | – | > 100 | > 100
17 | CC(C)(Br)C(Br)CCC(C)(Br)C(Br)CO (stereo not drawn) | > 10 | > 10 | > 10 | > 10 | > 10 | > 10 | > 10 | > 10 | > 10 | – | > 10 | > 10 | > 10 | > 10 | > 10 | > 10 | > 10 | – | > 10
18 | C/C(=N/NC(=S)Nc1ccc([N+](=O)[O-])cc1)c1cccc(/C(C)=N\NC(=S)Nc2ccc([N+](=O)[O-])cc2)n1 | 12.2 | 2.67 | > 37.7 | 17.8 | 8.06 | 2.36 | 1.84 | 14.6 | 16 | 2.87 | 12.8 | 8.11 | 4.73 | 15.7 | 17.7 | – | 8.8 | 21.7 | > 44.3
19 | CCOC(=O)N/N=C(/OCC)c1ccccc1 | > 100 | > 100 | > 100 | > 100 | > 100 | > 100 | > 100 | > 100 | > 100 | > 100 | > 100 | > 100 | > 100 | > 100 | > 100 | > 100 | > 100 | > 100 | –
20 | CC(=O)N1C(c2[nH]c3ccccc3c2-c2ccccc2)CCN1c1ccccc1 (stereo not drawn) | > 10 | > 10 | > 10 | > 10 | > 10 | > 10 | > 10 | – | > 10 | – | > 10 | > 10 | > 10 | > 10 | > 10 | > 10 | > 10 | > 10 | > 10

— PubChem BioAssay (NCI)
